From US8680320B2, “Heavy metal binding compounds and their method of use” (Life Technologies Corporation, priority 2006, dated 2014)
Entries after “also recorded” stand apart in the source; their conditions may differ.

Key:
[1] = Fluorescence titration of cadmium ions in cuvettes; format: binding; details: 50 mM MOPS pH 7, metal titrated up to 100 μM
Experimental: A dye stock (709 μM) solution of Compound 10 was prepared in DMSO. Lead, cadmium and mercury solutions from 0-100 μM were prepared in disposable cuvettes by diluting a 100 μM metal stock solutions to a final volume of 2 mL with 50 mM MOPS (pH7). The 100 μM metal stocks were also in 50 mM MOPS (pH7). For the cadmium titration, dye stock was added to give a final concentration of 0.35 μM. For the lead and mercury titrations, dye stock was added to give a final concentration of 1.42 μM. Samples were excited at 492 nm and fluorescence was recorded at 517 nm. […] See, FIG. 2.
The experiment was performed as described above except that the exact dye concentrations were unknown. Sample was dissolved in DMSO and diluted 2× in nano-pure H2O before running. Ex./Em. 549/577 nm. […] See, FIG. 1.
The experiment was performed as described above for cadmium ion detection except that the exact dye concentrations were unknown. Ex./Em. 348/397/481 nm (ratiometric).

[2] = test system: intracellular Pb or Cd ions in 3T3 cells; test: Compound 12 on 3T3 cells with PbCl2 or CdCl2, then TPEN chelation; format: cell-based; details: 400 nM Compound 12, 1 μM ionomycin
Experimental: 500 nM, 250 nM and 125 nM of PbCl2 and at concentration range 100 uM, 50 μM and 25 μM of CdCl2.
After fluorescence acquisition, TPEN, a cell-permeant heavy metal chelator, was added to the samples.

For `O=C(O)COc1ccccc1OCCOc1cc(-c2cc3ccc(C(=O)O)cc3[nH]2)ccc1N(CC(=O)O)CC(=O)O` [Compound 18], which Kd [1] is on record?
The Kd was 1200 nM.

With `c1ccc(CN(CCN(Cc2ccccn2)Cc2ccccn2)Cc2ccccn2)nc1` [TPEN, tetrakis-(2-pyridylmethyl)ethylenediamine] as the molecule, how does the “Change of Compound 12 fluorescence after addition of the chelator” value [2] read?
Its value is “drop of fluorescence after TPEN addition; also recorded: drop in fluorescence from the viable cells”.
